Test results as given in publication PMC4186439, “Characterization of a novel brain barrier ex vivo insect-based P-glycoprotein screening model” (Pharmacology Research & Perspectives, 2014).
Each block holds one compound with its values, some of them ahead of it.

What was measured:
[1] = locust hemolymph; injection of 20 μL of 20 μmol/kg dose; samples at 0.08, 0.25, 0.75, 2 and 6 h; n = 6
Method: Clearance of test compounds from the hemolymph was measured by repeated sampling of 10 μL hemolymph from the individual locust at 5, 15, 45, 120, and 360 min after intrahemolymph administration (20 μL) of the test compound solution (20 μmol/kg body weight). The 10 μL hemolymph samples were added to microcentrifuge tubes (Eppendorf) containing 40 μL ice-cold insect buffer.

[2] = tested on: Pgp transporter homologue (Mdr65); parameters: method as in Mayer et al. [2009]; settings: Drosophila melanogaster; ref Mayer et al. [2009]; cited from earlier work
locust brain barrier [3] = tested on: locust brain barrier; parameters: method as in Andersson et al. [2013]; settings: locust ex vivo model; ref Andersson et al. [2013]; cited from earlier work
Pgp efflux transport = settings: 3 μmol/L, 5 min, without verapamil; Fig. 5; n = 3
Pgp transporter [4] = settings: locust brain barrier model; ref Nielsen et al. [2011]; cited from earlier work
locust brain barrier [5] = settings: for Concentration-dependent ex vivo brain uptake profile: exposure 3, 10, 30 and 100 μmol/L for 5 min, Fig. 3, n = 3
Pgp transporter [6] = settings: 3 and 10 μmol/L exposure, 5 min, with and without verapamil; Fig. 4; n = 3
Pgp transporter [7] = assay: In vivo locust brain uptake (brain:hemolymph ratio) with or without co-injected Pgp inhibitor CsA; settings: 15 min after injection, data not shown
Pgp transporter [8] = settings: locust ex vivo and mouse Pgp KO/WT; ref Andersson et al. [2013]; Doran et al. [2005]; cited from earlier work

SMILES: CC(C)NCC(O)COc1cccc2ccccc12 (stereo not drawn) [Propranolol, propranolol]
Elimination (drug elimination constant calculated from C = Coe^−kt) [1]: −0.98 ^1 h^−1

SMILES: COC(=O)c1ccccc1-c1c2ccc(=N)cc-2oc2cc(N)ccc12 [Rho123, rhodamine 123]
Dm brain concentration when co-injected with the Pgp inhibitor CsA [2]: increases

SMILES: CC(NC(C)(C)C)C(=O)c1cccc(Cl)c1 (stereo not drawn) [Bupropion]
Ex vivo brain uptake after increased exposure concentrations (locust brain barrier [3]): more than dose-related

SMILES: C=C[C@H]1C[N@@]2CC[C@H]1C[C@@H]2[C@@H](O)c1ccnc2ccc(OC)cc12 [Quinidine, quinidine]
Ex vivo brain uptake when exposure temperature raised from 2°C to 30°C (Pgp efflux transport): corresponding increase in quinidine uptake was not seen
Uptake into the locust brain with Pgp inhibitor verapamil (Pgp transporter [4]): significantly increased

SMILES: CN(C)C(=O)C(CCN1CCC(O)(c2ccc(Cl)cc2)CC1)(c1ccccc1)c1ccccc1 [Loperamide, loperamide]
Concentration-dependent ex vivo brain uptake profile (locust brain barrier [5]): increased more than linearly
Ex vivo brain uptake/concentration on co-exposure to verapamil (Pgp transporter [6]): significantly increased
Hemolymph concentration when injected alone or co-injected with CsA (Pgp transporter [7]): no difference

Ratio of permeabilities (dynamic range of the locust ex vivo model) (locust brain barrier [5]; Cbz (high permeability) versus atenolol (low permeability)): ~64
Concentration-dependent ex vivo brain uptake profile (locust brain barrier [5]): linear increase
Ex vivo brain uptake when exposure temperature raised from 2°C to 30°C (Pgp efflux transport): markedly increased
SMILES: NC(=O)N1c2ccccc2C=Cc2ccccc21 [Cbz, carbamazepine]

SMILES: CN(C)CCCC1(c2ccc(F)cc2)OCc2cc(C#N)ccc21 (stereo not drawn) [citalopram]
Pgp transporter efflux liability (Pgp transporter [8]): affected by Pgp transporter efflux
